How the values were obtained:
Test in all cases: bioluminescence peak-height (V0) kinetics
[1] = biological target: T1, Luc2 (Photinus pyralis, UniProt P08659, F243M/S347G, form not given); type: biochemical; conditions: Mg-ATP, O2; assay details in supplement; Mut51, His-tagged; read-out: Km (μM) ^4
T1 construct: mammalian codon optimized P. pyralis Luc; pGEX-6P-2, E. coli BL21(DE3)pLysS, GST removed, N-terminal GlyProLeuGlySer kept; Mut51 from pET28a (His-tag)
Text: (§1) bioluminescence peak-height (V0) kinetics on Luc2

[2] = biological target: T2, Luc2 (Photinus pyralis, UniProt P08659); type: biochemical; conditions: Mg-ATP, O2; assay details in supplement; read-out: Km (μM) ^4
T2 construct: mammalian codon optimized P. pyralis Luc; pGEX-6P-2, E. coli BL21(DE3)pLysS, GST removed, N-terminal GlyProLeuGlySer kept; Mut51 from pET28a (His-tag)
Text: as §1

[3] = system: T3, CBR (tested as CBR2, CBR2opt); type: biochemical; conditions: Mg-ATP, O2; assay details in supplement; read-out: Km (μM) ^4
T3 construct: mouse codon optimized; pGEX-6P-2, E. coli BL21(DE3)pLysS, GST removed, N-terminal GlyProLeuGlySer kept
Text: bioluminescence peak-height (V0) kinetics on CBR (tested as CBR2, CBR2opt)

[4] = system: T4, PLR3; type: biochemical, Photinus pyralis / Luciola italica; conditions: Mg-ATP, O2; assay details in supplement; read-out: Km (μM) ^4
T4 construct: G246A/F250H in mammalian codon optimized PLR1; pGEX-6P-2, N-terminal GlyProLeuGlySer kept
Text: bioluminescence peak-height (V0) kinetics on PLR3

[5] = biological target: T5, Fluc_red (Photinus pyralis, UniProt P08659, S284T/E354R/D357Y, form not given); type: biochemical; conditions: Mg-ATP, O2; assay details in supplement; read-out: Km (μM) ^4
T5 construct: pET16b, His-tag
Text: bioluminescence peak-height (V0) kinetics on Fluc_red

T2 sequence (P08659 whole entry): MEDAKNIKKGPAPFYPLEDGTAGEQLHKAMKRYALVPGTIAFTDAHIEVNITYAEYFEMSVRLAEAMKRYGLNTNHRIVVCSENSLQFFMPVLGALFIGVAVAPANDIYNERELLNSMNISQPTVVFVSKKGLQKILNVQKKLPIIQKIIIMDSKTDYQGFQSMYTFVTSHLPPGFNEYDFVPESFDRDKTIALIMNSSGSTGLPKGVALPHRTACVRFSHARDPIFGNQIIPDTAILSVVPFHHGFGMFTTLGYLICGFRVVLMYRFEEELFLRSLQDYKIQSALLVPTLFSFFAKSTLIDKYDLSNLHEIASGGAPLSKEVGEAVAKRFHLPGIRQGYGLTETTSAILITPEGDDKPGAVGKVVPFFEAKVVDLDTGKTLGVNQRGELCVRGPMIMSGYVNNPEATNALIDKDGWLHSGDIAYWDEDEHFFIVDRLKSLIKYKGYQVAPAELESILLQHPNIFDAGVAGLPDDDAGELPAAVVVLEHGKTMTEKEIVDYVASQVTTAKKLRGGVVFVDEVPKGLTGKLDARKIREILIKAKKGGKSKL
T5 sequence (P08659 whole entry S284T/E354R/D357Y, form open): as the sequence (P08659 whole entry) above, with S284T, E354R, D357Y counted along it
T1 sequence (P08659 whole entry F243M/S347G, form open): as the sequence (P08659 whole entry) above, with F243M, S347G counted along it

Structure (SMILES) | Km [2] [µM] | Km [3] [µM] | also measured
O=C(O)[C@H]1CSC(c2nc3c(Br)cc(O)cc3s2)=N1 [4′-BrLuc, (S)-2-(4-bromo-6-hydroxybenzo[d]thiazol-2-yl)-4,5-dihydrothiazole-4-carboxylic acid] | 44 ± 11 | – | Km [1]: 2.3 ± 0.2 µM
O=C(O)[C@H]1CSC(c2nc3cc4c(cc3s2)NCC4)=N1 [CycLuc1, (S)-2-(6,7-dihydro-5H-thiazolo[4,5-f]indol-2-yl)-4,5-dihydrothiazole-4-carboxylic acid] | 0.61 ± 0.2 | – | –
O=C(O)[C@H]1CSC(c2nc3ccc(O)cc3s2)=N1 [LH2, (S)-2-(6-hydroxybenzo[d]thiazol-2-yl)-4,5-dihydrothiazole-4-carboxylic acid] | – | 250 ± 24 | –
Nc1ccc2nc(C3=N[C@@H](C(=O)O)CS3)sc2c1 [NH2-LH2, (S)-2-(6-aminobenzo[d]thiazol-2-yl)-4,5-dihydrothiazole-4-carboxylic acid] | – | 9.5 ± 1.3 | –
Nc1ccc2c(ccc3nc(C4=N[C@@H](C(=O)O)CS4)sc32)c1 [NH2-NpLH2] | 3.3 ± 0.6 | 0.8 ± 0.1 | –
Nc1cnc2c(ccc3nc(C4=N[C@@H](C(=O)O)CS4)sc32)c1 [NH2-QLH2] | 1.5 ± 0.2 | – | –
O=C(O)[C@H]1CSC(c2nc3ccc4cc(O)ccc4c3s2)=N1 [OH-NpLH2] | – | 0.93 ± 0.13 | –
O=C(O)[C@H]1CSC(c2nc3ccc4cc(O)cnc4c3s2)=N1 [OH-QLH2] | 1.8 ± 0.6 | – | Km [4]: 1.6 ± 0.1 µM
O=C(O)[C@H]1CSC(/C=C/c2nc3ccc(O)cc3s2)=N1 [iLH2, (S,E)-2-(2-(6-hydroxybenzo[d]thiazol-2-yl)vinyl)-4,5-dihydrothiazole-4-carboxylic acid] | 0.13 ± 0.05 | 0.9 ± 0.08 | Km [5]: 0.17 ± 0.05 µM

From paper PMC8910387, “Systematic Comparison of Beetle Luciferase-Luciferin Pairs as Sources of Near-Infrared Light for In Vitro and In Vivo Applications” (International Journal of Molecular Sciences, 2022)
